Consider five compounds from publication PMC4094919, “Screening and hit evaluation of a chemical library against blood-stage Plasmodium falciparum” (Malaria Journal, 2014).

Data set [1] deals with P. falciparum NF54 strain. The data set is described as follows: P. falciparum NF54 growth assay, 3H-hypoxanthine incorporation (hit validation). Particulars: for EC50: Plasmodium falciparum; for Comment (activity in words on retest): hit validation, NF54 confirmatory assay. It counts as cell-based, Plasmodium falciparum. The protocol:
Synthesized compounds were tested in an alternative assay, in which ^3H-hypoxanthine incorporation was measured in the chloroquine-sensitive strain NF54 (Values were measured in duplicate, 12 points/EC50).
Cultivation of Plasmodium falciparum: Plasmodium falciparum strain NF54 was obtained from the Research and Reference Reagent Resource Center (MR4) (Manassas, VA, USA). The two strains were maintained in vitro by a modification of the method of Trager and Jensen. Cultures were maintained in A positive (A^+) human erythrocytes suspended at 5% hematocrit in complete medium. […] Parasite growth and morphology were observed daily using thin smears at 100X (oil immersion) magnification following staining with Giemsa stain.
Plasmodium falciparum growth assay: The protocol assesses the compound efficacy against the growth of P. falciparum in vitro.
All cultures used in the study are albumax II adopted. […]
Following the incubation period, the plates were harvested with a FilterMate cell harvester (Perkin Elmer) onto unifilter-96 GF/B plates, washed with distilled water to remove excess radiochemical and plates were kept for drying 37°C overnight or 60°C for 1 hr. Fifty µL of Microscint scintillation cocktail (Microscint-High Efficiency LSC-Cocktail; Perkin Elmer) added in the unifilter-96 GF/B plates and kept for 15-20 min. The plates were counted in a Top Count NXT microplate scintillation and luminescence counter (Perkin Elmer). The mean values for [^3H]-hypoxanthine incorporation in parasitized control and non-parasitized control erythrocytes were calculated.
Assay data were analysed using Graph pad prism ver.5 software. A variable sigmoid dose response curve is plotted keeping log concentrations at X-axis and % inhibition at Y-axis.

The nature of data set [2]: Chemical stability on standing at room temperature. It counts as physicochemical.
A further data set has as its system P. falciparum 3D7 strain. The data set is described as follows: P. falciparum 3D7 growth inhibition, DAPI imaging (HTS screen). It is filed as cell-based. Particulars: Plasmodium falciparum. How it is done: The P. falciparum 3D7 strain was used for the primary screen.
For the screening of the chemical library, a validated high throughput screening (HTS) method was used as reported by Duffy and Avery. In brief, intra-erythrocyte P. falciparum 3D7 parasites incubated with the compounds for 72 hours were stained with 4′-6-diamidino-2-phenylindole (DAPI) and imaged using a high throughput confocal imaging system. To ascertain inhibition of parasite growth, images of fluorescent parasites were translated, using a mathematical algorithm, into a numerical output of classified spots (parasites) as determined by fluorescence size and intensity.
EC50 and CC50 values were calculated for compounds which presented an Emax plateau using GraphPad Prism.

The mark [3] stands for this setting: NF54, heading bounds of Figure 8: not reconfirming / reconfirming / newly synthesized compounds, read-out: EC50 (bound in Figure 8).
The mark [4] stands for this setting: P. falciparum NF54 strain, 3H-hypoxanthine incorporation, newly synthesized sample, read-out: EC50 (NF54).
Setting [5] is: negative logarithm of the molar EC50, NF54, read-out: pEC50 (NF54) (converted).
Where [6] appears, read: P. falciparum 3D7 strain, DAPI imaging, HTS screen, library sample, read-out: EC50 (3D7).
The mark [7] stands for this setting: negative logarithm of the molar EC50, 3D7, read-out: pEC50 (3D7) (converted).
Where [8] appears, read: 3D7 / NF54, range over HTS (3D7) and retest after synthesis (NF54), read-out: EC50 range over the two assays.

SMILES strings stand for the structures. Entries after “also recorded” stand apart in the source; their conditions may differ. Read-outs that look alike come from different tables or passages of the source. Marks after values point to notes of the source that are not given here.

As to `Cc1c(CO)c2ccccc2n1Cc1ccccc1C#N` [Compound 1, 2-((3-(hydroxymethyl)-2-methyl-1H-indol-1-yl)methyl)benzonitrile], the EC50 in data set [1] (setting [3]) is more than 1000 nM; in data set [1] (setting [4]), 4700 nM; in data set [1] (setting [5]), 5010 nM; in the data set on P. falciparum 3D7 strain (setting [6]) it was 602 nM; in the data set with P. falciparum 3D7 strain (setting [7]), 631 nM. In data set [1], the “Comment (activity in words on retest)” value is listed as “Weakly active/unstable”. Besides, the Chemical stability entry in data set [2] is listed as “significantly degraded; also recorded: unstable”.
Consider `O=C(c1cccc(-c2noc(CN(CCN3CCCCC3)C(=O)c3ccccc3)n2)c1)N1CCCNCC1` [Compound 10, N-((3-(3-(1,4-diazepane-1-carbonyl)phenyl)-1,2,4-oxadiazol-5-yl)methyl)-N-(2-(piperidin-1-yl)ethyl)benzamide], for which the EC50 in data set [1] (setting [8]) was 60 to 181 nM; in data set [1] (setting [3]), less than 1000 nM; in data set [1] (setting [4]), 60 nM; in data set [1] (setting [5]) it was 63.1 nM; in the data set on P. falciparum 3D7 strain (setting [6]), 181 nM; with P. falciparum 3D7 strain (setting [7]), 200 nM. Moreover, the “Comment (activity in words on retest)” value in data set [1] was “Validated hit”.
As to `O=C(NCC(c1ccsc1)N1CCCCCC1)c1ccc(C(F)(F)F)cc1` (stereo not drawn) [Compound 11, N-(2-(azepan-1-yl)-2-(thiophen-3-yl)ethyl)-4-(trifluoromethyl)benzamide], the EC50 in data set [1] (setting [3]) was less than 1000 nM; in data set [1] (setting [4]), 518 nM; in data set [1] (setting [5]), 501 nM; in the data set on P. falciparum 3D7 strain (setting [6]) it was 433 nM; in the data set with P. falciparum 3D7 strain (setting [7]) it was 398 nM. The “Comment (activity in words on retest)” value in data set [1] is reported as “Validated hit”.
On to `COc1ccc2c(c1)C1(Nc3ccccc3-c3nc4ccccc4n31)C(=O)N2` (stereo not drawn) [Compound 12, 5'-methoxy-5H-spiro[benzo[4,5]imidazo[1,2-c]quinazoline-6,3'-indolin]-2'-one], for which the EC50 in data set [1] (setting [3]) is less than 1000 nM; in data set [1] (setting [4]), 60 nM; in data set [1] (setting [5]) it was 63.1 nM; with P. falciparum 3D7 strain (setting [6]) it was 928 nM; with P. falciparum 3D7 strain (setting [7]), 1000 nM. Further, the “Comment (activity in words on retest)” value in data set [1] was “Validated hit, CHEMBL1545915^f)”.
With `Cc1csc(Sc2ncnc3sccc23)n1` [Compound 13, 4-((4-methylthiazol-2-yl)thio)thieno[2,3-d]pyrimidine], the EC50 in data set [1] (setting [8]) is 102 to 194 nM; in data set [1] (setting [3]), less than 1000 nM; in data set [1] (setting [4]), 102 nM; in data set [1] (setting [5]), 100 nM; in the data set on P. falciparum 3D7 strain (setting [6]), 194 nM; in the data set with P. falciparum 3D7 strain (setting [7]), 200 nM. Besides, in data set [1], the “Comment (activity in words on retest)” value is listed as “Validated hit”.
